One test addresses T1, hASCT1 (Homo sapiens, UniProt P43007).
T1 construct: expressed in transfected cells; host or cells: HEK293 (ATCC CRL-11268), transient transfection
T1 sequence (P43007 1-532): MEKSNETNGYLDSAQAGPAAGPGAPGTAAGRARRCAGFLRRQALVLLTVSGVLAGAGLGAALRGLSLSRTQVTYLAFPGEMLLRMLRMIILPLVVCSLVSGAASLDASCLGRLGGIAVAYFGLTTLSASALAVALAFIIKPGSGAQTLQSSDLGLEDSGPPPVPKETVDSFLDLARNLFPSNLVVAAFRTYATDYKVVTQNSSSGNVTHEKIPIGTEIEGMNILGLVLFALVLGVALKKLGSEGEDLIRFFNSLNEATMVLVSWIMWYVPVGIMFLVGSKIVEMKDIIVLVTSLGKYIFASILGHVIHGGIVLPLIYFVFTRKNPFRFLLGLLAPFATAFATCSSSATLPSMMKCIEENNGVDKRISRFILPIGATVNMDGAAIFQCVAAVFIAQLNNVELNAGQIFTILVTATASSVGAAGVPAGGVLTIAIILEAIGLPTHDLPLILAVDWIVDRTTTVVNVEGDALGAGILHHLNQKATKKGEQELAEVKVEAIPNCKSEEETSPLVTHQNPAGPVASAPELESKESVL
The test is described as follows: Electrophysiology: SLC1 specificity, anion current in transfected HEK293 cells. It counts as cell-based. Conditions: for Ki: read-out: Binding affinity Ki. Here is the method:
(§1) We also tested the specificity of Lc-BPE for ASCT2 over other SLC1 family members (ASCT1, EAAT1-3, and EAAT5).
(§2) Fig. S3. SLC-1 specificity of Lc-BPE. (A) Electrophysiological current responses to the application of 100 µM glutamate (red trace) or varying concentrations of Lc-BPE (black, blue and red traces) to rEAAT1-expressing cells HEK293 cells. (B-C) Dose response curves obtained from currents recorded a fter application of Lc-BPE extracellularly to cells transiently expressing hASCT2, rASCT2, hASCT1 (panel B) and rEAAT1, rEAAT2, rEAAT3 and hEAAT5 (panel C) respectively. For hASCT2, rASCT2 and hASCT1, intracellular pipette solution contained 10 mM alanine and 130 mM NaSCN. For rEAAT1, rEAAT2, rEAAT3 and hEAAT5, intracellular solution contained 10 mM glutamate and 130 mM NaSCN. Extracellular solution was the same for all the experiments (140 mM NaCl). The voltage was 0 mV. […]
(§3) Cell culture and transfection
(§4) Human embryonic kidney 293 (HEK293, ATCC CRL -11268) cells were cultured in DMEM media supplemented with 10% (v/v) fetal bovine serum (FBS), 2 mM glutamine, 1% penicillin streptomycin solution, 1 mM sodium pyruvate and non -essential amino acids. Cells were maintained at 370C in a fully humidified atmosphere containing 5% CO2. rASCT2, hASCT2, hASCT1, EAAT1, EAAT2, EAAT3, EAAT5 and YFP complementary DNAs were each used to transiently transfect HEK293 using POLYPLUS Jet-prime transfection reagent. Cells were analyzed using electrophysiological techniques 24-40 hours after transfection.
(§5) Electrophysiological techniques
(§6) Electrophysiological experiments were performed as described previously 1,2. Stock solutions of inhibitor was prepared in dimethyl sulfoxide (DMSO) up to 100 mM.
(§7) Dilutions to working concentrations were made using external buffer. The highest […]
(§8) cells. For rASCT2, hASCT2 and hASCT1, external buffer contained 140 mM NaCl, 2 mM MgCl2, 2 mM CaCl2, and 10 mM HEPES, pH 7.40 while internal pipette solution comprised of 130 mM NaSCN, 2 mM MgCl2, 10 mM EGTA, 10 mM HEPES and 10mM alanine, pH 7.40. For specificity experiments with EAAT1, EAAT2, EAAC1 and EAAT5, internal solution contained 10 mM glutamate instead of alanine. Compounds were applied to HEK293 cells expressing DNA of interest suspended from a current recording electrode in whole cell configuration44 through a rapid solution exchange device described previously45. Cells are immersed in external buffer bath used to dissolve the inhibitors. The open pipette resistance was between 3 and 6 MΩ. Series resistance was not compensated in these experiments due to relatively small currents. Current s traces were recorded using an Adams and List EPC7 amplifier and digitized using a Molecular Devices Digidata A/D converter.
(§9) Data analysis was performed as described previously 46. Linear and nonlinear curve fitting of the experimental data were analyzed using MicroCal Origin software. Linear plots were fitted using the general equation (y = a + bx) obtaining adjusted R 2 and Pearson’s r values. Nonlinear dose–response relationships were fitted with a Michaelis – Menten-like equation to obtain apparent Ki values in the absence of substrate. For competition studies, equation I = I1 + I2 [Inh]/(Ki + [Inh]) was used for fitting, where I1 is the alanine induced current without the inhibitor, and I2 is the maximum current in the presence of saturating inhibitor concentration, [Inh]max 1,2. At least five experiments were performed for each compound. Unless stated otherwise, the error bars in all our graphs represent mean ± SD .
(§10) ASCT2 expression and purification
(§11) Human ASCT2 (hASCT2) was produced in Pichia pastoris X-33 strain (Invitrogen) in fermentor26 and purified using DDM and CHS (Anatrace) and 1 mM L-glutamine (Merck) to maintain protein stability 27. Membranes representing ~1.5 g cells were solubilized in buffer A (25 mM Tris-HCl, pH 7.4, 300 mM NaCl, 10% (vol/vol) glycerol, 1 mM L - glutamine, 1% DDM and 0.1% CHS) for 1 h at 4 °C; ultracentrifuged (30 min, 442,907 × […]

Another test concerns the target T2, rEAAT1 (Rattus norvegicus, UniProt P24942).
T2 construct: expressed in transfected cells; host or cells: HEK293 (ATCC CRL-11268), transient transfection
T2 sequence (P24942 1-543): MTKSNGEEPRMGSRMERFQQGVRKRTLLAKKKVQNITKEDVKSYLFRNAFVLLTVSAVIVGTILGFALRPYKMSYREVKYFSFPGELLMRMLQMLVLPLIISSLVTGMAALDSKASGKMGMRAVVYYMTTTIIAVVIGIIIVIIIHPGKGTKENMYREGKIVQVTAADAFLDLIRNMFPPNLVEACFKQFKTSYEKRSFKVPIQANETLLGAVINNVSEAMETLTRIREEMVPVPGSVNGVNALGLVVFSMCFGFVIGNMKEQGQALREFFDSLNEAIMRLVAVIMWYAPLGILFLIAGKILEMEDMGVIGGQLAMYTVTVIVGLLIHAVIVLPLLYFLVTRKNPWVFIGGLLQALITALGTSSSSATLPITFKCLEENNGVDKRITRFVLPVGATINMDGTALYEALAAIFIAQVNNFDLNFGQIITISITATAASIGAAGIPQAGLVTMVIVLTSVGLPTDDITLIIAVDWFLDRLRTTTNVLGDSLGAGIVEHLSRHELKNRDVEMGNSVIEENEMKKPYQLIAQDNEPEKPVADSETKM
Described as above. It counts as cell-based. The conditions noted are these: 0 mV, 10 mM glutamate and 130 mM NaSCN internal, No current = no outward current up to highest concentration tested (§ 20-50, || 100-400, # 1500-2500 µM); for Ki: read-out: Binding affinity Ki. The procedure: as §1, §2, §3, §4, §5, §6, §7, §8, §9, §10, §11

The mark [1] stands for this setting: HEK293 cells, 0 mV, 10 mM alanine and 130 mM NaSCN internal, No current = no outward current up to highest concentration tested (§ 20-50, || 100-400, # 1500-2500 µM).

Bounds are passed on as bounds.

By Ki is commonly meant a measure of affinity in units of concentration, obtained from inhibition or displacement.

Take `O=C(O[C@@H]1CN[C@H](C(=O)O)C1)c1ccccc1-c1ccccc1` [ERA-3]: the “Binding affinity Ki” value at hASCT1 (setting [1]) and at rEAAT1 was “No current” in each case. Consider `O=C(O[C@@H]1CN[C@H](C(=O)O)C1)c1ccc(-c2ccc(F)cc2)cc1` [ERA-4], for which the Ki at hASCT1 (setting [1]) is 0.9 ± 0.08 µM; on rEAAT1, 0.4 ± 0.07 µM. On to `O=C(O[C@@H]1CN[C@H](C(=O)O)C1)c1ccc(-c2ccc(C(F)(F)F)cc2)cc1` [ERA-5], for which the Ki on hASCT1 (setting [1]) is 0.44 ± 0.14 µM; at rEAAT1, 1 ± 0.25 µM. For the compound `Cc1ccccc1-c1ccc(C(=O)O[C@@H]2CN[C@H](C(=O)O)C2)cc1` [ERA-6], the inhibition constant (Ki) amounted to 1.33 ± 0.3 µM on hASCT1 (setting [1]) and 1 ± 0.11 µM at rEAAT1. The matching figures for `O=C(O[C@@H]1CN[C@H](C(=O)O)C1)c1ccc(C(O)c2ccccc2)cc1` (stereo partly shown) [ERA-9]: 43 ± 13.4 µM and 39.5 µM. In the case of `O=C(Nc1ccc(C(=O)O[C@@H]2CN[C@H](C(=O)O)C2)cc1)c1ccc(C(F)(F)F)cc1` [ERA-11], the inhibition constant (Ki) on hASCT1 (setting [1]) is 8.51 ± 3.87 µM; on rEAAT1, 9.6 ± 7.5 µM. In the case of `O=C(O[C@@H]1CN[C@H](C(=O)O)C1)c1ccc(Oc2ccccc2)cc1` [ERA-16], the Ki was found to be 5.71 ± 0.91 µM on hASCT1 (setting [1]) and 8.18 ± 1.77 µM on rEAAT1.

With `N[C@@H](COC(=O)c1ccc(NC(=O)c2ccccc2)cc1)C(=O)O` [ERA-21], the Ki on hASCT1 (setting [1]) came to 11.6 ± 1.75 µM; at rEAAT1, 9.57 ± 1.61 µM.

Take `N[C@@H](COC(=O)c1ccccc1)C(=O)O` [ERA-25]: the inhibitory constant (Ki) at hASCT1 (setting [1]) stood at 170 ± 26.7 µM; on rEAAT1 it was 195 ± 48.4 µM. As to `N[C@@H](COC(=O)c1cccnc1)C(=O)O` [ERA-28], the Ki on hASCT1 (setting [1]) worked out at 549 ± 306 µM. For the same compound, the “Binding affinity Ki” value at rEAAT1 is given as “No current”. Take `O=C(O[C@@H]1CN[C@H](C(=O)O)C1)C(c1ccccc1)c1ccccc1` [ERA-29]: on rEAAT1, the “Binding affinity Ki” value is “No current”.

`O=C(O[C@@H]1CN[C@H](C(=O)O)C1)c1ccc(OCc2ccccc2)cc1` [ERA-31]: the Ki at hASCT1 (setting [1]) was more than 100 µM. For the same compound, on rEAAT1, the “Binding affinity Ki” value was “No current”. Take `O=C(O[C@H]1CN[C@H](C(=O)O)C1)c1ccc(C(=O)c2ccccc2)cc1` [ERA-35]: the “Binding affinity Ki” value at rEAAT1 is “No current”. `O=C(O[C@@H]1CN[C@H](C(=O)O)C1)c1ccc(-c2ccccc2)cc1` [Lc-BPE, L-cis hydroxyproline biphenyl ester]: the “apparent affinity of hASCT1 lower than that of rASCT2” value at hASCT1 (hASCT1 versus rASCT2) is recorded as approximately 3.8 fold.

The record behind these values is PMC8449414, “Rational design of ASCT2 inhibitors using an integrated experimental-computational approach” (Proceedings of the National Academy of Sciences of the …, 2021).
